Test results taken from PubChem BioAssay AID2060604 (Molecular Pharmacology Branch, DTP, NCI, 2025).

System: 379773-124-R-J2-PDC complex spheroids, viability % test/control
Assay: Anticancer human tumor 379773-124-R-J2-PDC patient-derived endometrial carcinoma cell line growth inhibition [CLK]
Conditions: for IC50: curve of first compound; for viability, T/C: stronger effect = lower value
Source text: A high-throughput screen of multi-cell type tumor spheroids was designed to identify active combinations of […] and targeted small molecules. Complex spheroids include a stromal component modeled by human endothelial cells (HUVEC) and fibroblasts modeled by human mesenchymal stem cells (MSCs). The concentration ranges selected for each drug and investigational agent were based upon clinically achievable concentrations if the clinical Cmax of the agent was known.
Compounds. The drugs and investigational agents: cirtuvivint (SM08502; NSC835563), CC-671 (NSC850746), vemurafenib (NSC761431), tapotoclax (NSC804041), sotorasib (NSC818433), adagrasib (NSC831453), MRTX-1133 (NSC836407), BAY2416964 (NSC825713), copanlisib (NSC816437), inavolisib (NSC800729), abemaciclib (NSC768073), osimertinib (NSC779217), entinostat (NSC756642), eltanexor (KPT-8602, NSC794443), venetoclax (NSC766270), ceralasertib (NSC777638), bortezomib (NSC756655), olaparib (NSC753686), talazoparib (NSC767125), alisertib (NSC759677), peposertib (NSC802822), gemcitabine (NSC613327), 5-fluorouracil (NSC19893), SN-38 (NSC673596), oxaliplatin (NSC266046), paclitaxel (NSC125973), and doxorubicin (NSC123127), were obtained from the National Cancer Institute (NCI) Developmental Therapeutics Program Chemical Repository. The FDA-approved anticancer drug set is available from the Developmental Therapeutics Program at https://dtp.cancer.gov/organization/dscb/obtaining/available plates.htm. […] The stock solutions were prepared in dimethyl sulfoxide (DMSO, Sigma-Aldrich, St. Louis, MO, cat. D2650), except for the platinum complexes which were prepared in saline (Quality Biological, Gaithersburg, MD, cat. 114-055-101), at 800-fold the tested concentration and stored at -70 degrees C prior to their use. All drugs and investigational agents were tested over a range starting from a high concentration at or near the clinical Cmax and decreasing in half-log increments. If the clinical Cmax for an agent had not been determined, the highest concentration tested was 10 microM.
Cell Culture. All cells were maintained in an incubator at 37 degrees C and 5% CO2 with 95% humidity. The PDC lines were cultured according to standard operating procedures established by the NCI PDMR. Briefly, all PDCs were thawed and cultured in Matrigel-coated flasks prepared with a working solution of 1X Ham's F-12 nutrient mix, without supplementation (Invitrogen, Waltham, MA, cat. 11765054), 100 U/mL penicillin-streptomycin (Invitrogen, cat. 15140122), and 2.5% Matrigel (Corning Inc., Corning, NY, cat. 354248) for the first three passages. The 947758-054-R-J2-PDC line was cultured in 6B/Colon 1A media, which includes advanced DMEM/F-12 (Thermo Fisher Scientific, cat. 12634028), 10 mM HEPES (Thermo Fisher Scientific, cat. 15630080), 1X GlutaMAX supplement (Thermo Fisher Scientific, cat. 35050061), 0.1 mg/mL primocin (InvivoGen, cat. ant-pm-2), 10% defined fetal bovine serum, heat inactivated (HyClone Laboratories Inc., cat. SH30070.03HI), 1.25 mM N-Acetyl-L-cysteine (Sigma-Aldrich, cat. A9165), 10 mM nicotinamide (Sigma-Aldrich, cat. N0636), 1X B-27 supplement (Thermo Fisher Scientific, cat. 17504044), 1X N-2 supplement (Thermo Fisher Scientific, cat. 17502048), and 10 microM Y-27632 dihydrochloride (Tocris Bioscience, cat. 1254). The 876862-298-R-J1-PDC was cultured in 6E media, which includes all 6B/Colon 1A media components plus 50% L-WRN conditioned media (ATCC, cat. CRL-3276), 50 ng/mL recombinant human EGF recombinant protein (hEGF; Thermo Fisher Scientific, cat. PHG0311), 10 ng/mL recombinant human fibroblast growth factor 10 (hGFG-10; PeproTech, cat. 100-26), 1 ng/mL recombinant human fibroblast growth factor 2 (hFGF-2; PeproTech, cat. 100-18B), and 1 µM prostaglandin E2 (PGE2; Tocris, cat. 2296). The 227483-062-R1-J1-PDC line was cultured in Panc media, containing all 6E components except hFGF-2, with the addition of 500 nM SB-431542 (Selleckchem, cat. S1067) and 10 nM gastrin (Tocris, cat. 3006). […]
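Also: compound exposure lasted seven days before the viability readout.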
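For viability, T/C in this document: 100% = DMSO vehicle control wells.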

## COc1c(OCCCN2CCOCC2)ccc2c3n(c(=NC(=O)c4cnc(N)nc4)nc12)CCN3 + CN1CCN(c2cc(C(=O)Nc3cc4cc(-c5cnn(C)c5)ccc4cn3)ccn2)CC1
Second compound 0.0316 µM
  IC50: 70.5 nM
Second compound 0.1 µM
  IC50: 50.6 nM
Second compound 0.316 µM
  IC50: < 3.16 nM
Second compound 1 µM
  IC50: < 3.16 nM
Second compound 3.16 µM
  IC50: < 3.16 nM
Second compound 10 µM
  IC50: < 3.16 nM
Second compound 0.0316 µM, first compound 0.00316 µM
  viability, T/C: 94.2%
Second compound 0.0316 µM, first compound 0.01 µM
  viability, T/C: 92.8%
Second compound 0.0316 µM, first compound 0.0316 µM
  viability, T/C: 87.6%
Second compound 0.0316 µM, first compound 0.1 µM
  viability, T/C: 33.5%
Second compound 0.0316 µM, first compound 0.316 µM
  viability, T/C: 10.9%
Second compound 0.0316 µM, first compound 1 µM
  viability, T/C: 2.85%
Second compound 0.1 µM, first compound 0.00316 µM
  viability, T/C: 89.6%
Second compound 0.1 µM, first compound 0.01 µM
  viability, T/C: 74.7%
Second compound 0.1 µM, first compound 0.0316 µM
  viability, T/C: 65.4%
Second compound 0.1 µM, first compound 0.1 µM
  viability, T/C: 31.4%
Second compound 0.1 µM, first compound 0.316 µM
  viability, T/C: 6.86%
Second compound 0.1 µM, first compound 1 µM
  viability, T/C: 2.02%
Second compound 0.316 µM, first compound 0.00316 µM
  viability, T/C: 21%
Second compound 0.316 µM, first compound 0.01 µM
  viability, T/C: 23.7%
Second compound 0.316 µM, first compound 0.0316 µM
  viability, T/C: 18.5%
Second compound 0.316 µM, first compound 0.1 µM
  viability, T/C: 6.99%
Second compound 0.316 µM, first compound 0.316 µM
  viability, T/C: 3.33%
Second compound 0.316 µM, first compound 1 µM
  viability, T/C: 1.61%
Second compound 1 µM, first compound 0.00316 µM
  viability, T/C: 0.15%
Second compound 1 µM, first compound 0.01 µM
  viability, T/C: 0.35%
Second compound 1 µM, first compound 0.0316 µM
  viability, T/C: 0.15%
Second compound 1 µM, first compound 0.1 µM
  viability, T/C: 0.11%
Second compound 1 µM, first compound 0.316 µM
  viability, T/C: 0.09%
Second compound 1 µM, first compound 1 µM
  viability, T/C: 0.08%
Second compound 3.16 µM, first compound 0.00316 µM
  viability, T/C: 0.07%
Second compound 3.16 µM, first compound 0.01 µM
  viability, T/C: 0.45%
Second compound 3.16 µM, first compound 0.0316 µM
  viability, T/C: 0.29%
Second compound 3.16 µM, first compound 0.1 µM
  viability, T/C: 0.11%
Second compound 3.16 µM, first compound 0.316 µM
  viability, T/C: 0.11%
Second compound 3.16 µM, first compound 1 µM
  viability, T/C: 0.1%
Second compound 10 µM, first compound 0.00316 µM
  viability, T/C: 0.16%
Second compound 10 µM, first compound 0.01 µM
  viability, T/C: 0.13%
Second compound 10 µM, first compound 0.0316 µM
  viability, T/C: 0.92%
Second compound 10 µM, first compound 0.1 µM
  viability, T/C: 0.79%
Second compound 10 µM, first compound 0.316 µM
  viability, T/C: 0.79%
Second compound 10 µM, first compound 1 µM
  viability, T/C: 0.15%
